Measurements: publication PMC9246869, “Allosteric inhibition of PPM1D serine/threonine phosphatase via an altered conformational state” (Nature Communications, 2022)
Several values for one entry are separate records, joined by “and”; a condition that tells them apart may be missing. Equal entries are not always repeated.

Target: T1, PPM1D1–420 (Homo sapiens, UniProt O15297)
T1 construct: PPM1D1–420 was PCR-amplified from the synthesized gene with BsaI sites; His(6)-SUMO (N, cleaved yes); made in house; host or cells: E. coli BL21 (DE3)
T1 sequence (O15297 1-420): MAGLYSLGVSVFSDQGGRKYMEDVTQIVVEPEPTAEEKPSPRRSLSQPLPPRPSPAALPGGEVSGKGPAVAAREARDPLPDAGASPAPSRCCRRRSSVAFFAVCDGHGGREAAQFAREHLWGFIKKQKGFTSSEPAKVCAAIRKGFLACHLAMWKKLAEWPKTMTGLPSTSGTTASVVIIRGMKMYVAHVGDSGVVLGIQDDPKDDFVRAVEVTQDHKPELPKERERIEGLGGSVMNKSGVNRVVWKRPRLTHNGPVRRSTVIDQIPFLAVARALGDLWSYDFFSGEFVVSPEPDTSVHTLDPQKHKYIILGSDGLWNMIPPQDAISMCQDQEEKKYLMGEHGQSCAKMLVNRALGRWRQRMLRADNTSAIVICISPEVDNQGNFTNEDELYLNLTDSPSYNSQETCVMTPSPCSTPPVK
Assay: FDP (fluorescein diphosphate) enzymatic assay
Assay type: biochemical
Parameters: FDP assay rate (Fig 3B): unit not given here
Conditions: for FDP assay rate (Fig 3B): triplicates; for FDP Assay, signal relative to 0 nM GSK (=100): PPM1D1-420, individual runs, listed as GSK
Experimental: The FDP assay was adapted from reported protocol with minor modifications. Fluorescein diphosphate tetra-ammonium salt (CAS 217305-49-2) was purchased from AAT Bioquest (Cat No.11600). The assay was carried out on a 384-well plate (Corning Cat No.3575) with assay buffer containing 50 mM Tris (pH 7.5), 50 mM NaCl, 30 mM MgCl2, 0.01% tween 20, and 2% DMSO. Reactions were initiated with the addition of FDP to a solution containing wild-type PPM1D or one of its variants, to a final concentration of 5 nM for PPM1D and 100 μM for FDP (or as indicated in Kcat/KM measurements). A fluorescent signal was detected on a Spectramax microplate reader (485/530 nm) for the next 15 min at room temperature with an interval for data collection of 45 s. For the IC50 measurement, the compound was pre-incubated with PPM1D for 1 h before addition of the substrate.

Cc1ncc(Cl)cc1NCc1ccc(C(=O)N[C@@H](CC2CCCC2)C(=O)NC2CC2)s1 [GSK2830371]
mode of inhibition (Michaelis–Menten kinetics, FDP hydrolysis): noncompetitive inhibitor
IC50 (PPM1D1–420, compound pre-incubated 1 h): ~6 nM
FDP assay rate (Fig 3B) ([FDP] 25 uM, inhibitor 0.98 (unit not given)): 0.1081 and 0.1018 and 0.09496
FDP assay rate (Fig 3B) ([FDP] 25 uM, inhibitor 1.95 (unit not given)): 0.0895 and 0.07795 and 0.08008
FDP assay rate (Fig 3B) ([FDP] 25 uM, inhibitor 3.9 (unit not given)): 0.06795 and 0.05591 and 0.06219
FDP assay rate (Fig 3B) ([FDP] 25 uM, inhibitor 7.8 (unit not given)): 0.03815 and 0.02398 and 0.0308
FDP assay rate (Fig 3B) ([FDP] 25 uM, inhibitor 15.6 (unit not given)): 0.01708 and 0.01354 and 0.01271
FDP assay rate (Fig 3B) ([FDP] 50 uM, inhibitor 0.98 (unit not given)): 0.154 and 0.1613 and 0.1584
FDP assay rate (Fig 3B) ([FDP] 50 uM, inhibitor 1.95 (unit not given)): 0.1193 and 0.1343 and 0.126
FDP assay rate (Fig 3B) ([FDP] 50 uM, inhibitor 3.9 (unit not given)): 0.09839 and 0.1118 and 0.09908
FDP assay rate (Fig 3B) ([FDP] 50 uM, inhibitor 7.8 (unit not given)): 0.04672 and 0.06633 and 0.05157
FDP assay rate (Fig 3B) ([FDP] 50 uM, inhibitor 15.6 (unit not given)): 0.02583 and 0.03504 and 0.03088
FDP assay rate (Fig 3B) ([FDP] 100 uM, inhibitor 0.98 (unit not given)): 0.2227 and 0.2316 and 0.2315
FDP assay rate (Fig 3B) ([FDP] 100 uM, inhibitor 1.95 (unit not given)): 0.1741 and 0.1931 and 0.1914
FDP assay rate (Fig 3B) ([FDP] 100 uM, inhibitor 3.9 (unit not given)): 0.1254 and 0.1375 and 0.1433
FDP assay rate (Fig 3B) ([FDP] 100 uM, inhibitor 7.8 (unit not given)): 0.08834 and 0.102 and 0.1128
FDP assay rate (Fig 3B) ([FDP] 100 uM, inhibitor 15.6 (unit not given)): 0.04867 and 0.06283 and 0.04506
FDP assay rate (Fig 3B) ([FDP] 100 uM, inhibitor 31.3 (unit not given)): 0.02471 and 0.03171 and 0.02136
FDP assay rate (Fig 3B) ([FDP] 200 uM, inhibitor 0.98 (unit not given)): 0.2541 and 0.2837 and 0.2718
FDP assay rate (Fig 3B) ([FDP] 200 uM, inhibitor 1.95 (unit not given)): 0.1754 and 0.2253 and 0.2249
FDP assay rate (Fig 3B) ([FDP] 200 uM, inhibitor 3.9 (unit not given)): 0.1214 and 0.1628 and 0.1643
FDP assay rate (Fig 3B) ([FDP] 200 uM, inhibitor 7.8 (unit not given)): 0.119 and 0.111 and 0.098
FDP assay rate (Fig 3B) ([FDP] 200 uM, inhibitor 15.6 (unit not given)): 0.06395 and 0.07091 and 0.07759
FDP assay rate (Fig 3B) ([FDP] 200 uM, inhibitor 31.3 (unit not given)): 0.03445 and 0.04201 and 0.04948
FDP assay rate (Fig 3B) ([FDP] 200 uM, inhibitor 62.5 (unit not given)): 0.03178 and 0.03296 and 0.03025
FDP assay rate (Fig 3B) ([FDP] 400 uM, inhibitor 0.98 (unit not given)): 0.3661 and 0.3766 and 0.3211
FDP assay rate (Fig 3B) ([FDP] 400 uM, inhibitor 1.95 (unit not given)): 0.2969 and 0.3135 and 0.2543
FDP assay rate (Fig 3B) ([FDP] 400 uM, inhibitor 3.9 (unit not given)): 0.2182 and 0.2333 and 0.1765
FDP assay rate (Fig 3B) ([FDP] 400 uM, inhibitor 7.8 (unit not given)): 0.2094 and 0.221 and 0.1442
FDP assay rate (Fig 3B) ([FDP] 400 uM, inhibitor 15.6 (unit not given)): 0.1122 and 0.1116 and 0.1013
FDP assay rate (Fig 3B) ([FDP] 400 uM, inhibitor 31.3 (unit not given)): 0.06577 and 0.07799 and 0.08598
FDP assay rate (Fig 3B) ([FDP] 400 uM, inhibitor 62.5 (unit not given)): 0.04782 and 0.06273 and 0.0378
FDP assay rate (Fig 3B) ([FDP] 400 uM, inhibitor 125 (unit not given)): 0.03598 and 0.04023 and 0.04026
FDP Assay, signal relative to 0 nM GSK (=100) ([GSK] 0.292969 nM): 86.8743 and 86.4893
FDP Assay, signal relative to 0 nM GSK (=100) ([GSK] 0.585938 nM): 87.0301 and 86.6545
FDP Assay, signal relative to 0 nM GSK (=100) ([GSK] 1.17188 nM): 79.2709 and 79.2522
FDP Assay, signal relative to 0 nM GSK (=100) ([GSK] 2.34375 nM): 68.8335 and 60.4469
FDP Assay, signal relative to 0 nM GSK (=100) ([GSK] 4.6875 nM): 48.948 and 39.1972
FDP Assay, signal relative to 0 nM GSK (=100) ([GSK] 9.375 nM): 35.4075 and 36.7435
FDP Assay, signal relative to 0 nM GSK (=100) ([GSK] 18.75 nM): 24.9745 and 29.6638
FDP Assay, signal relative to 0 nM GSK (=100) ([GSK] 37.5 nM): 10.1395 and 7.848
FDP Assay, signal relative to 0 nM GSK (=100) ([GSK] 75 nM): 7.727 and 7.844
FDP Assay, signal relative to 0 nM GSK (=100) ([GSK] 150 nM): 2.646 and -0.6809
FDP Assay, signal relative to 0 nM GSK (=100) ([GSK] 300 nM): 0.03588 and 0.07574
